Experiments:
[1] = biological target: T1, human Cereblon WT GST-tagged protein (Homo sapiens, UniProt Q96SW2); assay: CRBN-binding affinity, HTRF (CEREBLON BINDING kit); conditions: for inhibition at 0.5 µM: read-out: Inhibition Rate at 0.5 µM (%); for inhibition at 2 µM: read-out: Inhibition Rate at 2 µM (%)
T1 construct: purchased CISBIO 64BDCRBNPEH

GSPT1 = assay: Western blot, degradation of substrate protein in hPBMCs; type: cell-based, Human
IKZF2 = biological target: T2, IKZF2 (Homo sapiens, UniProt Q96SW2+Q9UKS7); assay: as above; type: cell-based
T2 construct: effects of the compounds of the present disclosure on the expression of target proteins in cells; endogenous in cells; host or cells: human PBMCs (Milecell Biotechnologies)
T2 sequence (Q9UKS7 whole entry): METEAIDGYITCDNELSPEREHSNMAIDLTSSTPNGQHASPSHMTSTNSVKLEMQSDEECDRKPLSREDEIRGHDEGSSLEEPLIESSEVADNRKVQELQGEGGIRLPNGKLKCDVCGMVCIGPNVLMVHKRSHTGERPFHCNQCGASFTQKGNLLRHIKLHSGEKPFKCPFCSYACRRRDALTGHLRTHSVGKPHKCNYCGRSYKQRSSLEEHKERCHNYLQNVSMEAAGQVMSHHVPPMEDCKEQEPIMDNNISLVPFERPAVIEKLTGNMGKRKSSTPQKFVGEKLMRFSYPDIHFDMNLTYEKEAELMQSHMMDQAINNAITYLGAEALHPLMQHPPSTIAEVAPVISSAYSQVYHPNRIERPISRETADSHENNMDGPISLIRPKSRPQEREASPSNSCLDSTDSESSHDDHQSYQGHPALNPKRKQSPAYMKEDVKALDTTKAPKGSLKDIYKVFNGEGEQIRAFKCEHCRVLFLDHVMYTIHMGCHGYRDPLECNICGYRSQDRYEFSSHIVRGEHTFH
T2 sequence (Q96SW2 whole entry): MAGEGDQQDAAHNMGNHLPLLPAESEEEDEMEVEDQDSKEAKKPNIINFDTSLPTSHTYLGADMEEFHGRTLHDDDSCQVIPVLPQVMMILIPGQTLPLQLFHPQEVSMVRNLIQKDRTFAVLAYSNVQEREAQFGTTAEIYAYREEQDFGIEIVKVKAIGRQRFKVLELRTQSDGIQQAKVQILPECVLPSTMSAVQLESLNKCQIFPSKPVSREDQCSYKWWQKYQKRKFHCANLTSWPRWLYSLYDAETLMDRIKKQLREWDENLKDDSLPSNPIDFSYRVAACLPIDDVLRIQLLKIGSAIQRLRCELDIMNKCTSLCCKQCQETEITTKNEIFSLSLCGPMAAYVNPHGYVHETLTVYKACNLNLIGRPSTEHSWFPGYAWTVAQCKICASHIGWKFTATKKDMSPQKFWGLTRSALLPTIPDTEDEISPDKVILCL
T2 sequence (Q16531 whole entry partner): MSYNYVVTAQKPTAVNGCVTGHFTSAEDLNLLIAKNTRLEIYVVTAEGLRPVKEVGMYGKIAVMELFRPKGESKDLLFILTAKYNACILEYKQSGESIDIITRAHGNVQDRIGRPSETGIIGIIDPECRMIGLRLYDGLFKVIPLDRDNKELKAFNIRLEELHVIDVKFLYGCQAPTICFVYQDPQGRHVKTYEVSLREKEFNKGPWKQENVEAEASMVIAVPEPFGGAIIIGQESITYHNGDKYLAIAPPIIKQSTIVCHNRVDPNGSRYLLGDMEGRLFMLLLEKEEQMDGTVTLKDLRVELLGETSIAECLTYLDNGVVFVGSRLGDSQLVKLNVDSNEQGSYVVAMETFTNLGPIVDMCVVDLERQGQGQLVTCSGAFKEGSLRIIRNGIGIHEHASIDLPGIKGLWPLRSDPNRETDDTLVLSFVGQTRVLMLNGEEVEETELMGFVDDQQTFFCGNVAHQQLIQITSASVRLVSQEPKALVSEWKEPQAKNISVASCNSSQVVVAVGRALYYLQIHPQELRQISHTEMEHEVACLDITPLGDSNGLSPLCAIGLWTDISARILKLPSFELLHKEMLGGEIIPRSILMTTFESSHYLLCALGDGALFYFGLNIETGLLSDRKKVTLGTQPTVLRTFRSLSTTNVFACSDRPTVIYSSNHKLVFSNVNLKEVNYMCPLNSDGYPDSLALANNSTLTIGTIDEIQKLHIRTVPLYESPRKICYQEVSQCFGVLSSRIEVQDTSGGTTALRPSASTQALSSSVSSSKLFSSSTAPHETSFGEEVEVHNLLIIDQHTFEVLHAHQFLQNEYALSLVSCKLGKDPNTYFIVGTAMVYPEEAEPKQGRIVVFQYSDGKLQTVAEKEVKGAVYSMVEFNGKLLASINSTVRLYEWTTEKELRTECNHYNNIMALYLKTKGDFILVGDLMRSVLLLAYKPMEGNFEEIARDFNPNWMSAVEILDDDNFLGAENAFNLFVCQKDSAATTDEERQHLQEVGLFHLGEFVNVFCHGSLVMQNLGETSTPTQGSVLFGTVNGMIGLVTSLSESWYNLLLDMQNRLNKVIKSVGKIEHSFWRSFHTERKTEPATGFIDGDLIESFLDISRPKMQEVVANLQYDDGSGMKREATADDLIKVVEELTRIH

CK1α = biological target: T3, CK1α (Homo sapiens, UniProt P48729+Q96SW2); assay: as above; type: cell-based
T3 construct: effects of the compounds of the present disclosure on the expression of target proteins in cells; endogenous in cells; host or cells: human PBMCs (Milecell Biotechnologies)
T3 sequence (P48729 whole entry): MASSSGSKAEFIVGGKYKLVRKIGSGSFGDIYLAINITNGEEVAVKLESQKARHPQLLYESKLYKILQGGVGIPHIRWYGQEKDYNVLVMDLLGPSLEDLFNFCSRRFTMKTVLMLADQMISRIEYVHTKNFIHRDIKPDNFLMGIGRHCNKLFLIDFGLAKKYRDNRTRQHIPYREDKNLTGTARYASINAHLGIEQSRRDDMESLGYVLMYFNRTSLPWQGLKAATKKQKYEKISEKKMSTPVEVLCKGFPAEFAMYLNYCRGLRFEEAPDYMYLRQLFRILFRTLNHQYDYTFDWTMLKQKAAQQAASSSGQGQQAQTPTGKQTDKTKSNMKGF
T3 sequence (Q96SW2 whole entry): as the sequence (Q96SW2 whole entry) above
T3 sequence (Q16531 whole entry partner): as the sequence (Q16531 whole entry partner) above

WEE1 = biological target: T4, WEE1 (Homo sapiens, UniProt P30291+Q96SW2); assay: as above; type: cell-based
T4 construct: effects of the compounds of the present disclosure on the expression of target proteins in cells; endogenous in cells; host or cells: human PBMCs (Milecell Biotechnologies)
T4 sequence (P30291 whole entry): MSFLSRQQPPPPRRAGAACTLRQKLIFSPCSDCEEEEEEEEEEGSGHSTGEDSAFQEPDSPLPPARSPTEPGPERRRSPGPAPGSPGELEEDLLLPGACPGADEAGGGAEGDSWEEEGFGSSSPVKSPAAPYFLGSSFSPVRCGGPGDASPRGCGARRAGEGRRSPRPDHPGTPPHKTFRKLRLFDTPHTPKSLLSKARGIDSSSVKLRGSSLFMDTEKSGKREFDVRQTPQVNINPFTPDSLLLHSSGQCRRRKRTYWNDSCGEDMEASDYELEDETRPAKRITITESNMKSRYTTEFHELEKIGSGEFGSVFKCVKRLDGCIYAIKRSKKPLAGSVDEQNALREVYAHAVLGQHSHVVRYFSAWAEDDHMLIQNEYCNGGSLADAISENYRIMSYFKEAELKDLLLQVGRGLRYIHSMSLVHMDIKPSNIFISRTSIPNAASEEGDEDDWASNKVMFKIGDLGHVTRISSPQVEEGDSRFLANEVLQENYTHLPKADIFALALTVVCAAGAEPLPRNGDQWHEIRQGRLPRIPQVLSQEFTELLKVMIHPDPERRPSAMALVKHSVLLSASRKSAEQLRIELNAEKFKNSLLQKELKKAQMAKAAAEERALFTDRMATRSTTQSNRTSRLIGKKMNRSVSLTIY
T4 sequence (Q96SW2 whole entry): as the sequence (Q96SW2 whole entry) above
T4 sequence (Q16531 whole entry partner): as the sequence (Q16531 whole entry partner) above

IKZF1 = biological target: T5, IKZF1 (Homo sapiens, UniProt Q13422+Q96SW2); assay: as above; type: cell-based
T5 construct: effects of the compounds of the present disclosure on the expression of target proteins in cells; endogenous in cells; host or cells: human PBMCs (Milecell Biotechnologies)
T5 sequence (Q13422 whole entry): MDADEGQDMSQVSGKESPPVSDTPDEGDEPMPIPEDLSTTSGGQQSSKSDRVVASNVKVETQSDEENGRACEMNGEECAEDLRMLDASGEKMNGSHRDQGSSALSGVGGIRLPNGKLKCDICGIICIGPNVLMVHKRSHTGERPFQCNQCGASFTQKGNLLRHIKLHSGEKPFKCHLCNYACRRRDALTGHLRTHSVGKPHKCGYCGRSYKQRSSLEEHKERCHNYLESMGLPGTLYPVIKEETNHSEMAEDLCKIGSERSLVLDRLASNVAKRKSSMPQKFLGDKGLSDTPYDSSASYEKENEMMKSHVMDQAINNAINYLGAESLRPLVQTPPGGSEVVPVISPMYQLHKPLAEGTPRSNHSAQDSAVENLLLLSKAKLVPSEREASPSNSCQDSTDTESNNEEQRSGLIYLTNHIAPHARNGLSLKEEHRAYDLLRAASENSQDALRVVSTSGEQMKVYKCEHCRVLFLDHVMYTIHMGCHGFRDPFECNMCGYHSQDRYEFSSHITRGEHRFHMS
T5 sequence (Q96SW2 whole entry): as the sequence (Q96SW2 whole entry) above
T5 sequence (Q16531 whole entry partner): as the sequence (Q16531 whole entry partner) above

IKZF3 = biological target: T6, IKZF3 (Homo sapiens, UniProt Q96SW2+Q9UKT9); assay: as above; type: cell-based
T6 construct: effects of the compounds of the present disclosure on the expression of target proteins in cells; endogenous in cells; host or cells: human PBMCs (Milecell Biotechnologies)
T6 sequence (Q9UKT9 whole entry): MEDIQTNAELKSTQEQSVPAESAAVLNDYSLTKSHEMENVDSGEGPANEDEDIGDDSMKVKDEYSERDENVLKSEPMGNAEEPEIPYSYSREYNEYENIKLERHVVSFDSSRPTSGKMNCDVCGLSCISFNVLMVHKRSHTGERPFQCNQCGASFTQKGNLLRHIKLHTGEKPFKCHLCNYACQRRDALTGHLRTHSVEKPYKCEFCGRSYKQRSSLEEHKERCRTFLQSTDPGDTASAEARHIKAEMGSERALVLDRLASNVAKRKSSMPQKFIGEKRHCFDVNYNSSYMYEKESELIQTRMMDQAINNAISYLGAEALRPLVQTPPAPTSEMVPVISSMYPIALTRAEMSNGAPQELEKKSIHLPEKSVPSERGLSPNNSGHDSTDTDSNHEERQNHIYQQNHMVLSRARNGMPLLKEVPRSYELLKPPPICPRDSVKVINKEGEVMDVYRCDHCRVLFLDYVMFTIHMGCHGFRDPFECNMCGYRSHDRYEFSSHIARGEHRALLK
T6 sequence (Q96SW2 whole entry): as the sequence (Q96SW2 whole entry) above
T6 sequence (Q16531 whole entry partner): as the sequence (Q16531 whole entry partner) above

[2] = Western blot, 24 hours of compound treatment, compounds tested at 50 nM and 500 nM (concentration for the table not stated)
[3] = 24 hours treatment, compounds at 50 nM and 500 nM (concentration behind the class not stated)

T1 sequence (Q96SW2 whole entry): as the sequence (Q96SW2 whole entry) above

Structure (SMILES)	inhibition at 0.5 µM [1] [%]	inhibition at 2 µM [1] [%]	IC50 ([1]; CRBN binding, HTRF, 3 hours at room temperature, read-out: HTRF IC50) [µM]	GSPT1 substrate protein remaining % (GSPT1; [2])	IKZF2 substrate protein remaining % (IKZF2; [2])	CK1α substrate protein remaining % (CK1α; [2])	Wee1 substrate protein remaining % (WEE1; [2])	IKZF 1 substrate protein remaining % (IKZF1; [2])	IKZF3 substrate protein remaining % (IKZF3; [2])	GSPT1 substrate protein remaining % (GSPT1; [3])	IKZF2 substrate protein remaining % (IKZF2; [3])	CK1α substrate protein remaining % (CK1α; [3])	Wee1 substrate protein remaining % (WEE1; [3])	IKZF 1 substrate protein remaining % (IKZF1; [3])	IKZF3 substrate protein remaining % (IKZF3; [3])
O=C1CCC(N2Cc3cc(CN4CCC(c5ncc6ccsc6n5)CC4)ccc3C2=S)C(=O)N1 (centres unmarked) [GT-09313, 3-(5-((4-(thieno[2,3-d]pyrimidin-2-yl)piperidin-1-yl)methyl)-1-thioxoisoindolin-2-yl)piperidine-2,6-dione]	60 to 80	80 to 100								A (0% ≤ substrate protein remaining % ≤ 80%)	B (80%< substrate protein remaining %≤ 100%)	B (80%< substrate protein remaining %≤ 100%)	B (80%< substrate protein remaining %≤ 100%)	A (0% ≤ substrate protein remaining % ≤ 80%)	B (80%< substrate protein remaining %≤ 100%)
CC1(C)CN(Cc2cccc3c2CN(C2CCC(=O)NC2=O)C3=S)CCN1C(c1ccccc1)c1ccccc1 (centres unmarked) [GT-08231, 3-(4-((4-benzhydryl-3,3-dimethylpiperazin-1-yl)methyl)-1-thioxoisoindolin-2-yl)piperidine-2,6-dione]	53 to 60	60 to 80		A (0% ≤ substrate protein remaining % ≤ 80%)	A (0% ≤ substrate protein remaining % ≤ 80%)	B (80%< substrate protein remaining %≤ 100%)	A (0% ≤ substrate protein remaining % ≤ 80%)	B (80%< substrate protein remaining %≤ 100%)	B (80%< substrate protein remaining %≤ 100%)						
O=C1CCC(N2Cc3c(CN4CCN(c5nc(N6CCOCC6)c6sccc6n5)CC4)cccc3C2=S)C(=O)N1 (centres unmarked) [GT-09033, 3-(4-((4-(4-morpholinothieno[3,2-d]pyrimidin-2-yl)piperazin-1-yl)methyl)-1-thioxoisoindolin-2-yl)piperidine-2,6-dione]	60 to 80	80 to 100								B (80%< substrate protein remaining %≤ 100%)	B (80%< substrate protein remaining %≤ 100%)	B (80%< substrate protein remaining %≤ 100%)	A (0% ≤ substrate protein remaining % ≤ 80%)	B (80%< substrate protein remaining %≤ 100%)	B (80%< substrate protein remaining %≤ 100%)
O=C1CCC(N2Cc3cc(CN4CCN(c5nccc(Cl)c5F)CC4)ccc3C2=S)C(=O)N1 (centres unmarked) [GT-09244, 3-(5-((4-(4-chloro-3-fluoropyridin-2-yl)piperazin-1-yl)methyl)-1-thioxoisoindolin-2-yl)piperidine-2,6-dione]	60 to 80	80 to 100								A (0% ≤ substrate protein remaining % ≤ 80%)	B (80%< substrate protein remaining %≤ 100%)	B (80%< substrate protein remaining %≤ 100%)	B (80%< substrate protein remaining %≤ 100%)	B (80%< substrate protein remaining %≤ 100%)	B (80%< substrate protein remaining %≤ 100%)
O=C1CCC(N2Cc3cc(CN4CCN(C(c5cccnc5)c5cccnc5)CC4)ccc3C2=S)C(=O)N1 (centres unmarked) [GT-07735, 3-(5-((4-(di(pyridin-3-yl)methyl)piperazin-1-yl)methyl)-1-thioxoisoindolin-2-yl)piperidine-2,6-dione]	53 to 60	80 to 100		A (0% ≤ substrate protein remaining % ≤ 80%)	B (80%< substrate protein remaining %≤ 100%)	B (80%< substrate protein remaining %≤ 100%)	A (0% ≤ substrate protein remaining % ≤ 80%)	B (80%< substrate protein remaining %≤ 100%)	A (0% ≤ substrate protein remaining % ≤ 80%)						
O=C1CCC(N2Cc3cc(CN4CCN(c5nsc6cc(F)ccc56)CC4)ccc3C2=S)C(=O)N1 (centres unmarked) [GT-09259, 3-(5-((4-(6-fluorobenzo[d]isothiazol-3-yl)piperazin-1-yl)methyl)-1-thioxoisoindolin-2-yl)piperidine-2,6-dione]	53 to 60	80 to 100								A (0% ≤ substrate protein remaining % ≤ 80%)	B (80%< substrate protein remaining %≤ 100%)	B (80%< substrate protein remaining %≤ 100%)	B (80%< substrate protein remaining %≤ 100%)	B (80%< substrate protein remaining %≤ 100%)	B (80%< substrate protein remaining %≤ 100%)
Cc1cscc1N1CCN(Cc2ccc3c(c2)CN(C2CCC(=O)NC2=O)C3=S)CC1 (centres unmarked) [GT-05113, 3-(5-((4-(4-methylthiophen-3-yl)piperazin-1-yl)methyl)-1-thioxoisoindolin-2-yl)piperidine-2,6-dione]			< 0.1	A (0% ≤ substrate protein remaining % ≤ 80%)	B (80%< substrate protein remaining %≤ 100%)	B (80%< substrate protein remaining %≤ 100%)	B (80%< substrate protein remaining %≤ 100%)	A (0% ≤ substrate protein remaining % ≤ 80%)	A (0% ≤ substrate protein remaining % ≤ 80%)						

Now from value to compound, other results behind:

inhibition at 0.5 µM [1] [%]	inhibition at 2 µM [1] [%]	IC50 ([1]; CRBN binding, HTRF, 3 hours at room temperature, read-out: HTRF IC50) [µM]	Structure (SMILES)	GSPT1 substrate protein remaining % (GSPT1; [2])	IKZF2 substrate protein remaining % (IKZF2; [2])	CK1α substrate protein remaining % (CK1α; [2])	Wee1 substrate protein remaining % (WEE1; [2])	IKZF 1 substrate protein remaining % (IKZF1; [2])	IKZF3 substrate protein remaining % (IKZF3; [2])	GSPT1 substrate protein remaining % (GSPT1; [3])	IKZF2 substrate protein remaining % (IKZF2; [3])	CK1α substrate protein remaining % (CK1α; [3])	Wee1 substrate protein remaining % (WEE1; [3])	IKZF 1 substrate protein remaining % (IKZF1; [3])	IKZF3 substrate protein remaining % (IKZF3; [3])
60 to 80	80 to 100		O=C1CCC(N2Cc3c(CN4CCN(c5nccc(Cl)c5F)CC4)cccc3C2=S)C(=O)N1 (centres unmarked) [GT-08803, 3-(4-((4-(4-chloro-3-fluoropyridin-2-yl)piperazin-1-yl)methyl)-1-thioxoisoindolin-2-yl)piperidine-2,6-dione]	B (80%< substrate protein remaining %≤ 100%)	B (80%< substrate protein remaining %≤ 100%)	B (80%< substrate protein remaining %≤ 100%)	A (0% ≤ substrate protein remaining % ≤ 80%)	B (80%< substrate protein remaining %≤ 100%)	B (80%< substrate protein remaining %≤ 100%)						
60 to 80	80 to 100		Cc1cc(N2CCN(Cc3cccc4c3CN(C3CCC(=O)NC3=O)C4=S)CC2)cs1 (centres unmarked) [GT-08298, 3-(4-((4-(5-methylthiophen-3-yl)piperazin-1-yl)methyl)-1-thioxoisoindolin-2-yl)piperidine-2,6-dione]	B (80%< substrate protein remaining %≤ 100%)	B (80%< substrate protein remaining %≤ 100%)	B (80%< substrate protein remaining %≤ 100%)	A (0% ≤ substrate protein remaining % ≤ 80%)	B (80%< substrate protein remaining %≤ 100%)	B (80%< substrate protein remaining %≤ 100%)						
80 to 100	80 to 100		O=C1CCC(N2Cc3c(CN4CCN(c5nc(Cl)nc6ccsc56)CC4)cccc3C2=S)C(=O)N1 (centres unmarked) [GT-08971, 3-(4-((4-(2-chlorothieno[3,2-d]pyrimidin-4-yl)piperazin-1-yl)methyl)-1-thioxoisoindolin-2-yl)piperidine-2,6-dione]							B (80%< substrate protein remaining %≤ 100%)	B (80%< substrate protein remaining %≤ 100%)	B (80%< substrate protein remaining %≤ 100%)	A (0% ≤ substrate protein remaining % ≤ 80%)	B (80%< substrate protein remaining %≤ 100%)	B (80%< substrate protein remaining %≤ 100%)
40 to 53	80 to 100		O=C1CCC(N2Cc3c(CN4CCN(c5cccc(C(F)(F)F)n5)CC4)cccc3C2=S)C(=O)N1 (centres unmarked) [GT-08701, 3-(1-thioxo-4-((4-(6-(trifluoromethyl)pyridin-2-yl)piperazin-1-yl)methyl)isoindolin-2-yl)piperidine-2,6-dione]	B (80%< substrate protein remaining %≤ 100%)	B (80%< substrate protein remaining %≤ 100%)	B (80%< substrate protein remaining %≤ 100%)	A (0% ≤ substrate protein remaining % ≤ 80%)	B (80%< substrate protein remaining %≤ 100%)	B (80%< substrate protein remaining %≤ 100%)						
30 to 40	60 to 80		O=C1CCC(N2Cc3c(CN4CCN(c5ncc(C(F)(F)F)cc5Cl)CC4)cccc3C2=S)C(=O)N1 (centres unmarked) [GT-08705, 3-(4-((4-(3-chloro-5-(trifluoromethyl)pyridin-2-yl)piperazin-1-yl)methyl)-1-thioxoisoindolin-2-yl)piperidine-2,6-dione]	B (80%< substrate protein remaining %≤ 100%)	B (80%< substrate protein remaining %≤ 100%)	B (80%< substrate protein remaining %≤ 100%)	A (0% ≤ substrate protein remaining % ≤ 80%)	B (80%< substrate protein remaining %≤ 100%)	B (80%< substrate protein remaining %≤ 100%)						
